Like-named read-outs stand apart in the source and are kept apart here.
How the values were obtained:
P-gp = system: P-gp; design: method as in PMID 11770010; conditions: cited from earlier work
[1] = system: plasma protein, mainly albumin; conditions: cited from earlier work
[2] = Pharmacokinetic study in Wistar rats, plasma levels by HPLC/MS, non-compartmental analysis; assay type: in vivo; conditions: for AUC(0-t): read-out: AUC0–24; for bioavailability: read-out: absolute bioavailability (F); for Cpmax: rat plasma
Procedure: The column is ACE C8 (50 ∗ 4.6) mm, particle size 5 μm (Supercell), and AP 13C as the internal standard. […] The chromatographic conditions of Ap and ESO analysis were as follows: The HPLC system: […] Detector: API 4000, Applied Biosystems, MDS SCIEX; computer system: […] Data Management Software: […] Column: ACE C8, (50 ∗ 4.6) mm, particle size 5 μm; Flow Rate: 650 μL/min; Injection Volume: 1 μL; […] Expected retention time: […] The ethical committee approved the study protocol of the High Research Council, Faculty of Pharmacy of the […] University, and the study was carried out in the animal house of the university. […] They were divided into five groups, each of 6 rats. Group 1 ([…].V sterile solution (5 mg/kg) in D.W containing 5% ethanol. Group 2 (G2) was given AP as sterile I.V solution (125 mcg/kg) in D.W containing 10% ethanol. […] All rats fasted overnight with access only to water. […] Blood samples were drawn into an EDTA tube and immediately centrifuged at 14,000 rpm for 7 min. Plasma was obtained and placed into a labeled Eppendorf tube and stored at […] until analysis. After constructing the Cp vs. t profile by plotting the average plasma concentration of each drug in ng/mL vs. time in hours, the pharmacokinetics was performed using Non-Compartmental Analysis (NCA) using WinNonlin® (Version 8.1).

[3] = cited from earlier work
[4] = IV (ESO 5 mg/kg; AP 125 mcg/kg)
[5] = Wistar, rat, plasma, iv, IV (ESO 5 mg/kg; AP 125 mcg/kg)
[6] = Wistar, rat, plasma, iv, IV (ESO 5 mg/kg; AP 125 mcg/kg), NCA, read-out: Kel (app) (converted)
[7] = Wistar, rat, plasma, iv, read-out: Vd
[8] = Wistar, rat, plasma, po, ESO 5 mg/kg + AP 250 mcg/kg in combination
[9] = Wistar, rat, plasma, po, ESO 5 mg/kg + AP 250 mcg/kg in combination, NCA, read-out: Kel (app) (converted)
[10] = Wistar, rat, plasma, po, given alone (ESO 5 mg/kg; AP 250 mcg/kg)
[11] = Wistar, rat, plasma, po, given alone (ESO 5 mg/kg; AP 250 mcg/kg), NCA, read-out: Kel (app) (converted)
[12] = oral, ESO 5 mg/kg + AP 250 mcg/kg in combination
[13] = oral, given alone (ESO 5 mg/kg; AP 250 mcg/kg)

Structure (SMILES)	AUMC0–24 [2, 4] [ng.h^2/mL]	AUMC0–∞ [2, 4] [ng.h^2/mL]	clearance ([2]; Wistar, rat, plasma, iv) [mL/min]	AUC(0-inf) [2, 5] [ng·h/mL]	MRT inf [2, 5] [h]	half-life [2, 5] [h]	k el [2, 6] [s⁻¹]	AUC(0-t) [2, 5] [ng·h/mL]	Vd [2, 7] [L]	AUC(0-inf) [2, 8] [ng·h/mL]	MRT inf [2, 8] [h]	Tmax [2, 8] [h]	half-life [2, 8] [h]	k el [2, 9] [s⁻¹]	AUC(0-t) [2, 8] [ng·h/mL]	AUC(0-inf) [2, 10] [ng·h/mL]	MRT inf [2, 10] [h]	Tmax [2, 10] [h]	k el [2, 11] [s⁻¹]	AUC(0-t) [2, 10] [ng·h/mL]	further results
COc1ccc2[nH]c([S+]([O-])Cc3ncc(C)c(OC)c3C)nc2c1 (stereo not shown) [ESO, 5-methoxy-2-{[(4-methoxy-3,5-dimethylpyridin-2-yl)methyl]sulfinyl}-1H-benzimidazole]	35805 ± 826	40322.6 ± 1256	3.7 ± 0.7	5450 ± 118	7.4 ± 0.95	4.8 ± 0.8	3.94e-05	5120 ± 120	1.5 ± 0.15	3410 ± 45.9	8.6 ± 0.13	4 ± 0.55	5.9 ± 0.236	3.22e-05	3250 ± 160	4510 ± 226	6.4 ± 0.128	2 ± 0.156	4.08e-05	4380 ± 218	P-gp inhibitor strength (P-gp): moderate to potent P-gp inhibitor; plasma protein binding ([1]; mainly to albumin ref 6, 7): about 97%; half-life ([2]; Wistar, rat, in vivo, po): 4.7 ± 0.14 h; bioavailability ([2]; Wistar, rat, plasma, oral): 62 ± 1.5%; k el ([2]; Wistar, rat, plasma, po, 5 mg/kg, oral ESO 5 mg/kg alone, read-out: elimination rate constant calculated from late concentrations of the plasma level time profile (linear model) (converted)): 4.53e-05 s⁻¹; decrease of AUC when given with AP ([2]; oral ESO 5 mg/kg with AP 250 mcg/kg vs alone): 25%; extrapolated area to infinity as share of the total area ([2]; oral ESO alone): about 13%; extrapolated area to infinity as share of the total area ([2]; oral ESO in combination with AP): 20%; AUMC0–24 [2, 12]: 23544.9 ± 309 ng.h^2/mL; AUMC0–∞ [2, 12]: 29430.9 ± 1473 ng.h^2/mL; Cl [2, 12]: 4.8 ± 0.14 mL/min; Vd [2, 12]: 2.4 ± 0.09 L; Cpmax [2, 12]: 387.9 ± 23.5 ng/mL; AUMC0–24 [2, 13]: 24658.6 ± 206.5 ng.h^2/mL; AUMC0–∞ [2, 13]: 29094.1 ± 1454.7 ng.h^2/mL; Vd [2, 13]: 1.41 ± 0.07 L; Cpmax [2, 13]: 695.9 ± 25.8 ng/mL; volume of distribution ([3]; adults ref 6, 7): 16 to 18 L; bioavailability ([3]; after 20 or 40 mg delayed-release tablets ref 6, 7): about 90%
COc1ccc(-n2nc(C(N)=O)c3c2C(=O)N(c2ccc(N4CCCCC4=O)cc2)CC3)cc1 [AP, 1-(4-methoxyphenyl)-7-oxo-6-[4-(2-oxopiperidin-1-yl)phenyl]-4,5-dihydropyrazolo [3,4-c]pyridine-3-carboxamide]	8164.8 ± 78.3	28975.07 ± 2364	0.3 ± 0.08	1340 ± 120	21.5 ± 1.5	14.9 ± 1.8	1.29e-05	894 ± 80.6	0.4 ± 0.09	1560 ± 78	14 ± 0.21	1 ± 0.32	9.6 ± 0.144	1.99e-05	1270 ± 63.3	1540 ± 54	24 ± 0.24	6 ± 1.09	1.17e-05	959 ± 38.4	bound to plasma protein ([1]; mainly albumin ref 14): 87–90%; bioavailability ([2]; Wistar, rat, plasma, 250 mcg/kg, oral vs IV, drug given alone, F=AUCoral/AUCiv∙Doseiv/Doseoral): 42 ± 1%; half-life [2, 10]: 16.6 ± 0.99 h; AUMC0–24 [2, 12]: 10320.5 ± 516 ng.h^2/mL; AUMC0–∞ [2, 12]: 21710.2 ± 215.1 ng.h^2/mL; Vd [2, 12]: 2.1 ± 0.015 L; Cpmax [2, 12]: 98.6 ± 12.6 ng/mL; AUMC0–24 [2, 13]: 9517 ± 475.8 ng.h^2/mL; AUMC0–∞ [2, 13]: 37101 ± 742.2 ng.h^2/mL; Cl [2, 13]: 0.54 ± 0.03 mL/min; Vd [2, 13]: 0.779 ± 0.032 L; Cpmax [2, 13]: 57.2 ± 5.3 ng/mL; excreted in the urine as unchanged drug [3]: 25%; excreted into the bile as unchanged drug [3]: 56%; share of total absorption in the distal part and the descending colon [3]: 55%; volume of distribution ([3]; mainly extracellular fluids ref 14): 21 L; bioavailability ([3]; no noticeable effect of food ref 12): around 50%
